Reference: patent publication US20220064214A1, “NOVEL PEPTIDES AND USES THEREOF” (CENNA BIOSCIENCES INC., priority 2019, published 2022)
Where “and” joins values, the source holds several entries; their conditions need not be identical. Equal entries are not always repeated. Entries after “also recorded” stand apart in the source; their conditions may differ. Marks after values point to notes of the source that are not given here. Square brackets hold non-standard residues; d marks the D form. Peptide text beside a SMILES is read from it.

Key:
[1] = Pharmacokinetics study in rats, plasma; format: in vivo; conditions: rat; for plasma concentration: individual rats
Method: (§1) An in-vivo study was carried out in rats to determine the pharmacokinetics (PK) of peptides P8, 8M1D and 8M2D in plasma and CSF. Each peptide was assessed through two dosage routes, intravenous (IV) and subcutaneous (SC). Three rats were assigned to each dose group with each peptide. Total of twelve rats per peptide were used.
(§2) Blood was collected through jugular vein cannulas, and the samples were collected into tubes with K2EDTA. After centrifuging at a temperature of 2 to 8° C. at 4,000×g for 5 minutes, the resulting plasma was split into equal aliquots, frozen, and stored at −60 to −80° C. One aliquot was for PK analysis and the other was for Aβ analysis (see Example 4).

[2] = Pharmacokinetics study in rats, CSF; format: in vivo; parameters: CSF concentration, Mean IV / CSF concentration, Mean SC: unit not given here; conditions: rat; for CSF concentration, Mean IV: 10 mg/kg IV; for CSF concentration, Mean SC: 10 mg/kg SC
Method: as §1
CSF collection was performed by first anesthetizing animals at specified time points (see Table 5) with a mixture of 80 mg/kg ketamine and 8 mg/kg xylazine. The depth of anesthesia was monitored by toe pinches. CSF was collected via the cisterna magna (˜0.05 mL), and it was split into equal aliquots, frozen, and stored at −60 to −80° C.

Aβ40 = experiment: Efficacy in reducing Aβ40 in rat plasma (ELISA); format: in vivo; conditions: for reduction in Aβ40 / Percent Decrease in Aβ 40 in Rat Plasma: 10 mg/kg SC; for Percent Decrease in Aβ 40 in Rat Plasma: mean of 3 rats, negative = decrease
Method: as §2
Rats (n=3 per peptide) were administered with P8, 8M1D, or 8M2D (10 mg/kg) subcutaneously, and plasma were collected at 0, 6, 12, and 24 h after dosing and Aβ40 analysis was carried out by ELISA (Invitrogen).

[3] = Delivery to brain in transgenic mice (brain concentrations); format: in vivo; parameters: Brain Concentration / Brain Concentration, Mean: unit not given here
Method: Critical to the development of any therapeutic for diseases like AD is the requirement that it can be delivered to the brain. Delivery to brain and efficacy of P8 and 8M2D in reducing Aß was analyzed in the transgenic mice described in Section 6.3 above. […]

Aβ = experiment: Reduction of Aβ in retinal cells differentiated from iPSC derived from Alzheimer's disease patients; format: cell-based
Description: The accumulation of Aβ in the retina was studied in this example. Retinal cells were differentiated from induced pluripotent stem (iPSC) cells derived from Alzheimer's disease patients.

In the case of CC(=O)N[C@H](CC(=O)O)C(=O)N[C@@H](CCC(=O)O)C(=O)N[C@@H](CCC(=O)O)C(=O)N[C@@H](CCC(=O)O)C(=O)N[C@@H](CC(=O)O)C(=O)N[C@@H](CCC(=O)O)C(=O)N[C@@H](CCC(=O)O)C(=O)N[C@@H](CC(C)C)C(N)=O [8M2D, Ac-dEEEDEEL-NH2] (Ac-[dD]EEEDEEL-NH2), the “time after dosing at which detectable in plasma” value ([1]; 10 mg/kg IV and SC) is reported as at least 6 h, the “exposure in plasma compared with P8 (in words)” value ([1]; 10 mg/kg IV and SC, at Cmax and most subsequent time points) is reported as “better exposures than P8” and the plasma concentration ([1]; 10 mg/kg IV, 0 hr (pre-dose)) is reported as “BQL”. For the same compound, the plasma concentration ([1]; 10 mg/kg IV, 0.167 hr, 10 mg/kg, in ng/mL (unit assumed)) was 20,900 and 21,000 and 23,400, the plasma concentration ([1]; 10 mg/kg IV, 0.5 hr, 10 mg/kg, in ng/mL (unit assumed)) was 5,620 and 5,680 and 5,940 and the plasma concentration ([1]; 10 mg/kg IV, 1 hr, 10 mg/kg, in ng/mL (unit assumed)) was 1,450 and 1,040 and 1,190. The plasma concentration ([1]; 10 mg/kg IV, 2 hr, 10 mg/kg, in ng/mL (unit assumed)) was 417 and 114 and 136, the plasma concentration ([1]; 10 mg/kg IV, 4 hr, 10 mg/kg) was 10.2 and 7.54 ^b and 8.29 ^b and the plasma concentration ([1]; 10 mg/kg IV, 6 hr, 10 mg/kg) was 2.09 ^b and 1.81 ^b and BQL. For the same compound, the plasma concentration ([1]; 10 mg/kg IV, 8 hr) was “BQL”, the plasma concentration ([1]; 10 mg/kg IV, 12 hr) was “BQL” and the plasma concentration ([1]; 10 mg/kg IV, 24 hr) was “BQL”. For the same compound, the plasma concentration ([1]; 10 mg/kg SC, 0 hr (pre-dose)) was “BQL”, the plasma concentration ([1]; 10 mg/kg SC, 0.167 hr, 10 mg/kg, in ng/mL (unit assumed)) was 16,200 and 13,500 and 13,800 ^a and the plasma concentration ([1]; 10 mg/kg SC, 0.5 hr, 10 mg/kg, in ng/mL (unit assumed)) was 9,030 and 9,010 and 7,190. For the same compound, the plasma concentration ([1]; 10 mg/kg SC, 1 hr, 10 mg/kg, in ng/mL (unit assumed)) was 3,250 and 4,160 and 3,110, the plasma concentration ([1]; 10 mg/kg SC, 2 hr, 10 mg/kg, in ng/mL (unit assumed)) was 609 and 987 and 1,040 and the plasma concentration ([1]; 10 mg/kg SC, 4 hr, 10 mg/kg, in ng/mL (unit assumed)) was 59.2 and 82.8 and 125. The plasma concentration ([1]; 10 mg/kg SC, 6 hr, 10 mg/kg) was 3.77 ^b and 9.84 ^b and 21.6, the plasma concentration ([1]; 10 mg/kg SC, 8 hr, 10 mg/kg) was 1.61 ^b and 4.37 ^b and 5.19 ^b and the plasma concentration ([1]; 10 mg/kg SC, 12 hr) was “BQL”. The plasma concentration ([1]; 10 mg/kg SC, 24 hr) was “BQL”, the “exposure in CSF compared with P8 (in words)” value ([2]; 10 mg/kg IV and SC, at Cmax and most subsequent time points, 10 mg/kg) was “better exposures than P8; also recorded: higher exposure than P8” and the “CSF concentration, Mean IV” value ([2]; 0 hr) was 0. The “CSF concentration, Mean IV” value ([2]; 0.5 hr) was 104, the “CSF concentration, Mean IV” value ([2]; 1 hr) was 55.6 and the “CSF concentration, Mean IV” value ([2]; 2 hr) was 68. For the same compound, the “CSF concentration, Mean IV” value ([2]; 4 hr) was 11.5, the “CSF concentration, Mean IV” value ([2]; 8 hr) was 1.75 and the “CSF concentration, Mean IV” value ([2]; 12 hr) was 0.378. The “CSF concentration, Mean IV” value ([2]; 24 hr) was 1.2, the “CSF concentration, Mean SC” value ([2]; 0 hr) was 0 and the “CSF concentration, Mean SC” value ([2]; 0.5 hr) was 59. For the same compound, the “CSF concentration, Mean SC” value ([2]; 1 hr) was 53.4, the “CSF concentration, Mean SC” value ([2]; 2 hr) was 172 and the “CSF concentration, Mean SC” value ([2]; 4 hr) was 13.3. The “CSF concentration, Mean SC” value ([2]; 8 hr) was 15.3, the “CSF concentration, Mean SC” value ([2]; 12 hr) was 0.113 and the “CSF concentration, Mean SC” value ([2]; 24 hr) was 0. The “reduction in Aβ40” value (Aβ40; rat plasma, 12 hr post dosing) was “about 35%”, the “reduction in Aβ40” value (Aβ40; rat plasma, 24 h post dosing) was “about 27%” and the “reduction of Aβ40 compared with the other peptides (in words)” value (Aβ40; rat plasma, SC) was “more potent than P8 and 8M1D; also recorded: more effectively than P8 and 8M1D”. The “Percent Decrease in Aβ 40 in Rat Plasma” value (Aβ40; 0 h) was 0.00%, the “Percent Decrease in Aβ 40 in Rat Plasma” value (Aβ40; 6 h) was −26.62% and the “Percent Decrease in Aβ 40 in Rat Plasma” value (Aβ40; 12 h) was −35.27%. The “Percent Decrease in Aβ 40 in Rat Plasma” value (Aβ40; 24 h) was −27.36%, the “delivery to the APPTg mouse brain (in words)” value ([3]; SC administration) was “in sufficient amounts to reduce Aß in the brain” and the “Brain Concentration” value ([3]; transgenic mice, SC, dose 10 mg/kg, individual animals) was “BQL”. For the same compound, the “Brain Concentration, Mean” value ([3]; transgenic mice, SC, dose 50 mg/kg, N 2) was 9.06, the “Brain Concentration, Mean” value ([3]; transgenic mice, SC, dose 250 mg/kg, N 5) was 15.4 and the “production of Aβ in retinal cells in the presence of the peptide (in words)” value (Aβ) was “reduced”.
